{"source": "paper PMC5943319", "about": "“Cloning and characterization of a pyrethroid pesticide decomposing esterase gene, Est3385, from Rhodopseudomonas palustris PSB-S” (Scientific Reports, 2018)", "tested_on": "Est3385", "assay": "GC quantification of residual substrate, Michaelis-Menten", "assay_type": "biochemical, Rhodopseudomonas palustris", "conditions": "GST fusion; substrate 10-50 µg/ml (below the Km); pH and temperature of kinetics not stated", "data": [{"smiles": "CC1(C)C(C(=O)OC(C#N)c2cccc(Oc3ccccc3)c2)C1(C)C", "note": "(stereo not shown) [fenpropathrin]", "values": [{"measurement": "Km", "result": "734 ± 13", "unit": "µM"}]}]}
